Measured values from patent US6258790A, “Antisense modulation of integrin α4 expression” (Isis Pharmaceuticals, Inc., priority 1999, dated 2001).
pIC50: −log10 of the molar value. Several values for one entry are separate records, joined by “and”; a condition that tells them apart may be missing. Equal values may be shown once.

Assays:
[1] = tested on: murine integrin α4; assay: Antisense inhibition of murine integrin α4 protein expression in IC-21 macrophage cells (flow cytometry, CD49d-PE); type: cell-based, mouse; conditions: for % Control (integrin α4 protein) / % Inhib (integrin α4 protein): Table 11
Method: Murine IC-21 macrophage cells (American Type Culture Collection, Manassas, Va.) were used for further study. Additional oligonucleotides were designed to target murine integrin α4. These are shown in Table 10; all 2' MOE nucleotides are shown in bold and remaining positions are 2' deoxy. All 2'-MOE cytosines in these compounds are 5' methylcytosines. IC-21 cells were seeded at 5×10^4 cell/well plates two days before assay. […] Wells were triplicates.
Cells (triplicates) were seeded at 2.5×10^4 cells/well in 24-well plates the day before treatment. Oligonucleotide concentrations were 0.2, 1, 5, 25 and 50 nM in 3 ug/ml LIPOFECTIN. Cells were harvested with 2 mM EDTA for 4 minutes, then 1 ml of 2% BSA, 0.2% azide was added per contents of each well.
IC-21 cells were treated with 0.3, 1, 3, 10 and 30 nM oligonucleotide with 3 ug/ml LIPOFECTIN for 4 hours. Cells were incubated for 24 hours, harvested with trypsin, stained with 2 ug/ml CD49d-PE and rat IgG2B as in previous examples.
These compounds were tested for ability to inhibit integrin α4 protein expression.

[2] = tested on: human integrin α4; assay: Inhibition of human integrin α4 protein levels by antisense oligonucleotides (LIPOFECTIN, flow cytometry with CD49d-FITC) in A375 melanoma cells; type: cell-based; design: % Inhib.: tested at 200 nM; conditions: Table 24; A375 cells; lipofectin; as Example 8
Source text: Integrin α4 protein levels can be quantitated in a variety of ways well known in the art, such as immunoprecipitation, Western blot analysis (immunoblotting), ELISA or fluorescence-activated cell sorting (FACS). Antibodies directed to integrin α4 can be identified and obtained from a variety of sources, such as the MSRS catalog of antibodies (Aerie Corporation, Birmingham, Mich.), or can be prepared via conventional antibody generation methods.
Target sites are indicated by nucleotide numbers, as given in the sequence source reference (GenBank accession no. L12002), to which the oligonucleotide binds. All compounds in Table 1 are 18 nucleotides in length, with a phosphorothioate backbone and a centered 10-base deoxynucleotide gap flanked by 2'-methoxyethoxy (2'MOE) wings. Human A375 melanoma cells (American Type Culture Collection, Manassas, Va.) were plated at 2000 cells/cm^2 two days before oligonucleotide treatment. Cells were treated with oligonucleotides at a dose of 200 nM oligonucleotide and 6 ug/ml LIPOFECTIN for four hours. Cells were incubated overnight and harvested with 2 mM EDTA in PBS. Cells were washed in 2% bovine serum albumin, 0.2% sodium azide in D-PBS at 4° C. Cells were centrifuged at 200×g, and the supernatant was decanted. […] Antibodies were incubated with the cells for 30 minutes at 4° C. in the dark, under gentle agitation. Cells were washed again as above and then resuspended in 0.3 ml of FacsFlow buffer with 0.5% formaldehyde. Cells were analyzed on Becton Dickinson FACScan. Results are expressed as percentage of control expression based on mean fluorescence intensity.
Cells were harvested with trypsin at 48 and 72 hours after oligonucleotide treatment and stained with 2 ug/ml CD49d-FITC as in the previous example.
Where backbones are mixed, linkages are shown as "s" for phosphorothioate (P=S or PS) and "o" for phosphodiester (P=O or PO). Where target region is indicated as `M62841,` oligonucleotides are targeted to the promotor region whose sequence is described in GenBank Accession No. M62841. Remaining oligonucleotides are targeted to the sequence described in Genbank Accession No. L12002 and their target sites on the L12002 sequence are indicated.
Target sites refer to nucleotide numbers on the target sequence (GenBank Accession No. L12002) to which the oligonucleotides hybridize.
Oligonucleotides were synthesized as "gapmers" consisting of a 9-nucleotide region of deoxynucleotides flanked by three 2'-O-methoxyethyl(2'-MOE) nucleotides on the 5' end and eight 2'-MOE nucleotides on the 3' end. 2'-MOE nucleotides are shown in bold in the table. Oligonucleotides were synthesized with phosphorothioate backbones throughout, and all cytosines are 5-methylcytosines.

[3] = IC-21 cells, 25 nM, triplicates
[4] = IC-21 cells, 25 nM, triplicates, 0.025 µM

16428 (antisense GGCCACTGACCAGAGTTGCA; phosphorothioate, 2'-MOE/deoxy gapmer, further chemistry not given here) [compound 16428]
% Control (integrin α4 protein) [1, 3]: 67% | % Inhib (integrin α4 protein) [1, 3]: 33%

16429 (antisense GGCCACTGACCAGAGTTGCA; phosphorothioate, 2'-MOE/deoxy gapmer, further chemistry not given here) [compound 16429]
% Control (integrin α4 protein) [1, 3]: 60% | % Inhib (integrin α4 protein) [1, 3]: 40%

16430 (antisense GGCCACTGACCAGAGTTGCA; phosphorothioate, 2'-MOE/deoxy gapmer, further chemistry not given here) [compound 16430]
% Control (integrin α4 protein) [1, 3]: 50% | % Inhib (integrin α4 protein) [1, 4]: 50% and > 50%

16431 (CCGCAGCCATGCGCTCTTGG; phosphorothioate, 2'-MOE/deoxy, further chemistry not given here) [compound 16431]
pIC50 ([1]; IC-21 cells): ~9.00 | % Control (integrin α4 protein) [1, 3]: 35% | % Inhib (integrin α4 protein) [1, 4]: 65% and > 50% | % Inhib. ([1]; Table 12, 0.2 nM, triplicates): 18% | % of control ([1]; Table 12, 0.2 nM, triplicates): 82% | % Inhib. ([1]; Table 12, 1 nM, triplicates): 43% | % of control ([1]; Table 12, 1 nM, triplicates): 57% | % Inhib. ([1]; Table 12, 5 nM, triplicates): 66% | % of control ([1]; Table 12, 5 nM, triplicates): 34% | % Inhib. ([1]; Table 12, 25 nM, triplicates): 68% | % of control ([1]; Table 12, 25 nM, triplicates): 32% | % Inhib. ([1]; Table 12, 50 nM, triplicates): 70% | % of control ([1]; Table 12, 50 nM, triplicates): 30%

16432 (CCGCAGCCATGCGCTCTTGG; phosphorothioate, 2'-MOE/deoxy, further chemistry not given here) [compound 16432]
% Control (integrin α4 protein) [1, 3]: 53% | % Inhib (integrin α4 protein) [1, 3]: 47%

16434 (CACCTCGCTTCCGCAGCCAT; phosphorothioate, 2'-MOE/deoxy, further chemistry not given here) [compound 16434]
% Control (integrin α4 protein) [1, 3]: 33% | % Inhib (integrin α4 protein) [1, 4]: 67% and > 50%

16435 (CACCTCGCTTCCGCAGCCAT; phosphorothioate, 2'-MOE/deoxy, further chemistry not given here) [compound 16435]
% Control (integrin α4 protein) [1, 3]: 30% | % Inhib (integrin α4 protein) [1, 4]: 70% and > 50%

16436 (CACCTCGCTTCCGCAGCCAT; phosphorothioate, 2'-MOE/deoxy, further chemistry not given here) [compound 16436]
% Control (integrin α4 protein) [1, 3]: 47% | % Inhib (integrin α4 protein) [1, 4]: 53% and > 50%

16437 (CGCTTCCGCAGCCATGCGCT; phosphorothioate, 2'-MOE/deoxy, further chemistry not given here) [compound 16437]
% Control (integrin α4 protein) [1, 3]: 36% | % Inhib (integrin α4 protein) [1, 4]: 64% and > 50%

16477 (CGGACCAGTACCAGGGTTAC; phosphorothioate, 2'-deoxy, further chemistry not given here) [compound 16477]
% Control (integrin α4 protein) [1, 3]: 96%

16479 (ACCTCCTCGCTCACGCGCTA; phosphorothioate DNA, further chemistry not given here) [compound 16479]
% Control (integrin α4 protein) [1, 3]: 96%

17045 (CCGCAGCCATGCGCTCTTGG; phosphorothioate, 2'-modified, further chemistry not given here) [compound 17045]
% Control ([1]; Table 16, 0.3 nM): 109% | % Control ([1]; Table 16, 1 nM): 65% | % Inhib. ([1]; Table 16, 1 nM): 35% | % Control ([1]; Table 16, 3 nM): 34% | % Inhib. ([1]; Table 16, 3 nM): 66% | % Control ([1]; Table 16, 10 nM): 12% | % Inhib. ([1]; Table 16, 10 nM): 88%

17046 (CCGCAGCCATGCGCTCTTGG; phosphorothioate, 2'-modified, further chemistry not given here) [compound 17046]
% Control ([1]; Table 16, 0.3 nM): 161% | % Control ([1]; Table 16, 1 nM): 123% | % Control ([1]; Table 16, 3 nM): 125% | % Control ([1]; Table 16, 10 nM): 75% | % Inhib. ([1]; Table 16, 10 nM): 25%

17047 (CCGCAGCCATGCGCTCTTGG; phosphorothioate, 2'-modified, further chemistry not given here) [compound 17047]
% Control ([1]; Table 16, 0.3 nM): 132% | % Control ([1]; Table 16, 1 nM): 107% | % Control ([1]; Table 16, 3 nM): 77% | % Inhib. ([1]; Table 16, 3 nM): 23% | % Control ([1]; Table 16, 10 nM): 36% | % Inhib. ([1]; Table 16, 10 nM): 67%

17048 (GCCGACACCCGTTCGTTCGG; phosphorothioate, 2'-modified, further chemistry not given here) [compound 17048]
% Control ([1]; Table 16, 0.3 nM): 159% | % Control ([1]; Table 16, 1 nM): 159% | % Control ([1]; Table 16, 3 nM): 150% | % Control ([1]; Table 16, 10 nM): 119%

107240 (antisense AGAGTTATCTGTGACTTCAC; chemistry not given here) [compound 107240]
% Control [2]: 40%

107241 (antisense GATACTGAGGTCCTCTTCCG; chemistry not given here) [compound 107241]
% Control [2]: 36%

107242 (antisense TGAGATCAACAGAAGTACAA; chemistry not given here) [compound 107242]
% Control [2]: 44%

107243 (antisense CCAGCCTTCCACATAACATA; chemistry not given here) [compound 107243]
% Control [2]: 39%

107244 (antisense AGGATAGATTTGTATTGTCT; chemistry not given here) [compound 107244]
% Control [2]: 37%

107246 (antisense TAATCATCATTGCTTTTACT; chemistry not given here) [compound 107246]
% Control [2]: 42%

107247 (antisense AAGAAGTCCTTAATCATCAT; chemistry not given here) [compound 107247]
% Control [2]: 65% | % Inhib. [2]: 35%

107249 (antisense CTTGTAAACAGTGTCTTTTA; chemistry not given here) [compound 107249]
% Control [2]: 38%

107250 (antisense GAGTAAAAGAAGTCCAAACA; chemistry not given here) [compound 107250]
% Control [2]: 57% | % Inhib. [2]: 43%

107251 (antisense CCTTGCATGAAGACATAATA; chemistry not given here) [compound 107251]
% Control [2]: 40%

107253 (antisense TCTTTGGCTGTATTATTACC; chemistry not given here) [compound 107253]
% Control [2]: 29%

107254 (antisense TGCTTTAGTGTTTCTCTACC; chemistry not given here) [compound 107254]
% Control [2]: 33%

107256 (antisense GAGGCAAGCACATATGGTAA; chemistry not given here) [compound 107256]
% Control [2]: 45%

107257 (antisense TGAAATGAACCTCTGCCCAC; chemistry not given here) [compound 107257]
% Control [2]: 44%

107258 (antisense TTAAAGTGATAATGGTCCAC; chemistry not given here) [compound 107258]
% Control [2]: 39%

107260 (antisense TTTGCCAGTTTGGCCTATAA; chemistry not given here) [compound 107260]
% Control [2]: 50%
